According to US4471131A, “Novel silyl esters of N-phosphonomethylglycine” (Monsanto Company, priority 1983, dated 1984):

Experiments:
Experiment in all cases: post-emergence herbicidal activity, greenhouse
Assay type in all cases: in vivo
Conditions in all cases: Table II
[1] = tested on: Barnyardgrass
Text: (§1) A good grade of top soil is placed in aluminum pans having holes in the bottom and compacted to a depth of 0.95 to 1.27 cm. from the top of the pan. A predetermined number of seeds of each of several dicotyledonous and moncotyledonous annual plant species and/or vegetative propagules for the perennial plant species were placed on the soil and pressed into the soil surface. The seeds and/or vegetative propagules are covered with soil and leveled. The pans are then placed on a sand bench in the greenhouse and watered from below as needed. After the plants reach the desired age (two to three weeks), each pan, except for the control pans, is removed individually to a spraying chamber and sprayed by means of an atomizer at the rates noted. In the spray solution is an amount of an emulsifying agent mixture to give a spray solution or suspension which contains about 0.4% by weight of the emulsifier. The spray solution or suspension contains a sufficient amount of the candidate chemical in order to give application rates corresponding to those set forth in the tables. The pans were returned to the greenhouse and watered as before and the injury to the plants as compared to the control is observed at approximately two and four weeks and the results recorded. In the tables, WAT means "weeks after treatment."
(§2) The post-emergent herbicidal activity index used in Tables II and III is as follows:
(§3) The plant species utilized in these tests are identified by letter in accordance with the following legend: […]

[2] = tested on: Canada Thistle
Text: as §1, §2, §3

[3] = tested on: Cocklebur
Text: as §1, §2, §3

[4] = tested on: Common Lambsquarters
Text: as §1, §2, §3

[5] = tested on: Downy Brome
Text: as §1, §2, §3

[6] = tested on: Johnsongrass
Text: as §1, §2, §3

[7] = tested on: Morningglory
Text: as §1, §2, §3

[8] = tested on: Pennsylvania Smartweed
Text: as §1, §2, §3

[9] = tested on: Quackgrass
Text: as §1, §2, §3

[10] = tested on: Velvetleaf
Text: as §1, §2, §3

[11] = tested on: Yellow Nutsedge
Text: as §1, §2, §3

[12] = 2 WAT, 5.6 kg/h, formulated immediately prior to treatment
[13] = 2 WAT, 11.2 kg/h, formulated immediately prior to treatment
[14] = 4 WAT, 5.6 kg/h, formulated immediately prior to treatment
[15] = 4 WAT, 11.2 kg/h, formulated immediately prior to treatment
[16] = 2 WAT, 5.6 kg/h, formulated in anhydrous tetrahydrofuran
[17] = 2 WAT, 11.2 kg/h, formulated in anhydrous tetrahydrofuran
[18] = 4 WAT, 5.6 kg/h, formulated in anhydrous tetrahydrofuran
[19] = 4 WAT, 11.2 kg/h, formulated in anhydrous tetrahydrofuran

CC(C)(C)[Si](C)(C)OC(=O)CNCP(=O)(O[Si](C)(C)C(C)(C)C)O[Si](C)(C)C(C)(C)C [Ex. 9, Glycine, N--((Bis[((1,1-Dimethylethyl)Dimethylsilyl)Oxy]Phosphinyl)Methyl),-(1,1-Dimethylethyl)Dimethylsilylester]
Plant Response Index (K) [1, 12]: 1 (25-49% inhibition) | Plant Response Index (K) [1, 13]: 1 (25-49% inhibition) | Plant Response Index (K) [1, 14]: 1 (25-49% inhibition) | Plant Response Index (K) [1, 15]: 2 (50-74% inhibition) | Plant Response Index (A) [2, 12]: 1 (25-49% inhibition) | Plant Response Index (A) [2, 13]: 1 (25-49% inhibition) | Plant Response Index (A) [2, 14]: 2 (50-74% inhibition) | Plant Response Index (A) [2, 15]: 1 (25-49% inhibition) | Plant Response Index (B) [3, 12]: 1 (25-49% inhibition) | Plant Response Index (B) [3, 13]: 2 (50-74% inhibition) | Plant Response Index (B) [3, 14]: 2 (50-74% inhibition) | Plant Response Index (B) [3, 15]: 2 (50-74% inhibition) | Plant Response Index (E) [4, 12]: 0 (0-24% inhibition) | Plant Response Index (E) [4, 13]: 0 (0-24% inhibition) | Plant Response Index (E) [4, 14]: 1 (25-49% inhibition) | Plant Response Index (E) [4, 15]: 2 (50-74% inhibition) | Plant Response Index (J) [5, 12]: 0 (0-24% inhibition) | Plant Response Index (J) [5, 13]: 1 (25-49% inhibition) | Plant Response Index (J) [5, 14]: 1 (25-49% inhibition) | Plant Response Index (J) [5, 15]: 1 (25-49% inhibition) | Plant Response Index (I) [6, 12]: 1 (25-49% inhibition) | Plant Response Index (I) [6, 13]: 1 (25-49% inhibition) | Plant Response Index (I) [6, 14]: 1 (25-49% inhibition) | Plant Response Index (I) [6, 15]: 1 (25-49% inhibition) | Plant Response Index (D) [7, 12]: 2 (50-74% inhibition) | Plant Response Index (D) [7, 13]: 2 (50-74% inhibition) | Plant Response Index (D) [7, 14]: 2 (50-74% inhibition) | Plant Response Index (D) [7, 15]: 2 (50-74% inhibition) | Plant Response Index (F) [8, 12]: 1 (25-49% inhibition) | Plant Response Index (F) [8, 13]: 1 (25-49% inhibition) | Plant Response Index (F) [8, 14]: 1 (25-49% inhibition) | Plant Response Index (F) [8, 15]: 1 (25-49% inhibition) | Plant Response Index (H) [9, 12]: 0 (0-24% inhibition) | Plant Response Index (H) [9, 13]: 0 (0-24% inhibition) | Plant Response Index (H) [9, 14]: 0 (0-24% inhibition) | Plant Response Index (H) [9, 15]: 0 (0-24% inhibition) | Plant Response Index (C) [10, 12]: 1 (25-49% inhibition) | Plant Response Index (C) [10, 13]: 2 (50-74% inhibition) | Plant Response Index (C) [10, 14]: 1 (25-49% inhibition) | Plant Response Index (C) [10, 15]: 2 (50-74% inhibition) | Plant Response Index (G) [11, 12]: 1 (25-49% inhibition) | Plant Response Index (G) [11, 13]: 1 (25-49% inhibition) | Plant Response Index (G) [11, 14]: 2 (50-74% inhibition) | Plant Response Index (G) [11, 15]: 2 (50-74% inhibition)

Glycine, N-((Bis[((1,1-Dimethylethyl)Diphenylsilyl)oxy]-Phosphinyl)-Methyl)-, [(1,1-Dimethylethyl)Diphenylsilyl]Ester, (75%); Silanol, (1,1-Dimethylethyl)Diphenyl-, (25%-Mixture) [Ex. 4]
Plant Response Index (K) [1, 16]: 1 (25-49% inhibition) | Plant Response Index (K) [1, 17]: 1 (25-49% inhibition) | Plant Response Index (K) [1, 18]: 1 (25-49% inhibition) | Plant Response Index (K) [1, 19]: 1 (25-49% inhibition) | Plant Response Index (A) [2, 16]: 0 (0-24% inhibition) | Plant Response Index (A) [2, 17]: 2 (50-74% inhibition) | Plant Response Index (A) [2, 18]: 0 (0-24% inhibition) | Plant Response Index (A) [2, 19]: 2 (50-74% inhibition) | Plant Response Index (B) [3, 16]: 1 (25-49% inhibition) | Plant Response Index (B) [3, 17]: 2 (50-74% inhibition) | Plant Response Index (B) [3, 18]: 1 (25-49% inhibition) | Plant Response Index (B) [3, 19]: 2 (50-74% inhibition) | Plant Response Index (E) [4, 16]: 0 (0-24% inhibition) | Plant Response Index (E) [4, 17]: 2 (50-74% inhibition) | Plant Response Index (E) [4, 18]: 0 (0-24% inhibition) | Plant Response Index (E) [4, 19]: 3 (75-99% inhibition) | Plant Response Index (J) [5, 16]: 0 (0-24% inhibition) | Plant Response Index (J) [5, 17]: 0 (0-24% inhibition) | Plant Response Index (J) [5, 18]: 0 (0-24% inhibition) | Plant Response Index (J) [5, 19]: 0 (0-24% inhibition) | Plant Response Index (I) [6, 16]: 0 (0-24% inhibition) | Plant Response Index (I) [6, 17]: 0 (0-24% inhibition) | Plant Response Index (I) [6, 18]: 0 (0-24% inhibition) | Plant Response Index (I) [6, 19]: 1 (25-49% inhibition) | Plant Response Index (D) [7, 16]: 1 (25-49% inhibition) | Plant Response Index (D) [7, 17]: 2 (50-74% inhibition) | Plant Response Index (D) [7, 18]: 1 (25-49% inhibition) | Plant Response Index (D) [7, 19]: 2 (50-74% inhibition) | Plant Response Index (F) [8, 16]: 1 (25-49% inhibition) | Plant Response Index (F) [8, 17]: 2 (50-74% inhibition) | Plant Response Index (F) [8, 18]: 0 (0-24% inhibition) | Plant Response Index (F) [8, 19]: 2 (50-74% inhibition) | Plant Response Index (H) [9, 16]: 0 (0-24% inhibition) | Plant Response Index (H) [9, 17]: 1 (25-49% inhibition) | Plant Response Index (H) [9, 18]: 0 (0-24% inhibition) | Plant Response Index (H) [9, 19]: 2 (50-74% inhibition) | Plant Response Index (C) [10, 16]: 0 (0-24% inhibition) | Plant Response Index (C) [10, 17]: 1 (25-49% inhibition) | Plant Response Index (C) [10, 18]: 0 (0-24% inhibition) | Plant Response Index (C) [10, 19]: 1 (25-49% inhibition) | Plant Response Index (G) [11, 16]: 0 (0-24% inhibition) | Plant Response Index (G) [11, 17]: 0 (0-24% inhibition) | Plant Response Index (G) [11, 18]: 1 (25-49% inhibition) | Plant Response Index (G) [11, 19]: 2 (50-74% inhibition)
